The source of these data is patent publication US5936101A, “Process for the preparation of 1,2-dioxetane compounds and novel sulfur-substituted 1,2-dioxetane compounds as intermediates” (Lumigen, Inc., priority 1997, dated 1999).

Data set [1] can be described thus: Base-induced decay of chemiluminescence of hydroxyphenyl alkoxy or aryloxy dioxetanes in 221 buffer pH 9.6. Conditions: 0.2 M 221 buffer, 0.88 mM Mg+2, 1.0 mg/mL 1-trioctylphosphoniummethyl-4-tributylphosphoniummethylbenzene dichloride. Format: physicochemical. As to the method:
The first order decay of chemiluminescence of dioxetanes 14-19 in 0.2 M 2-methyl-2-amino-1-propanol (221) buffer, pH 9.6 containing 0.88 mM Mg^+2 and 1.0 mg/mL of 1-trioctylphosphoniummethyl-4-tributylphosphoniummethylbenzene dichloride was measured at 37° C. in a Turner Designs (Sunnyvale, Calif.) model TD-20e luminometer. The half-lives of decay of chemiluminescence (t1/2) of hydroxy-dioxetanes correlate with the times required to reach the maximum light intensity (Imax) in the alkaline phosphatase-triggered decomposition of the corresponding phosphate-dioxetanes under the same conditions. […] It is expected that, for example, the phosphate derivatives of dioxetanes 14-19 as well as others which can be produced by the process described herein will be useful in alkaline phosphatase-linkedassays known in the art.

Data set [2] can be described thus: Fluoride (TBAF in DMSO) induced chemiluminescence. The data set is classed as physicochemical.
Data set [3] can be described thus: Base-induced decay of chemiluminescence of hydroxyphenyl alkylthio dioxetane in 221 buffer pH 9.6 with surfactant enhancers. The data set is classed as physicochemical. As to conditions: for t1/2 (decay of chemiluminescence): 0.2 M 221 buffer, pH 9.6, 0.88 mM Mg+2, ambient temperature. As to the method: The first order decay of chemiluminescence of dioxetane 3 in 0.2 M 221 buffer, pH 9.6 containing 0.88 mM Mg^+2 and the surfactant enhancers shown below was measured at ambient temperature. Surfactant A is CTAB, B is poly(vinylbenzyltributylphosphonium chloride), C is poly(vinylbenzyltributylphosphonium chloride)-co-poly(vinylbenzyltrioctylphosphonium chloride), D is 1-trioctylphoniummethyl-4-tributylphosphonium-methylbenzene dichloride.

Data set [4] can be described thus: Chemiluminescence on heating.
Data set [5] in a line: Thermal stability / stability on silica of dioxetanes. Format: physicochemical. Conditions: TLC on silica versus NMR. From the text:
(c) Synthesis of 4-ethylthio-4-(3-pivaloyloxyphenyl)spiro-[1,2-dioxetane-3,2'-tricyclo[3.3.1.1^3,7 ]decane] (2).

The structures appear in SMILES notation.

With `Oc1cccc(C2(OCC(F)(F)C(F)(F)F)OOC23C2CC4CC(C2)CC3C4)c1` (centres unmarked) [Dioxetane 17, 4-(3-Hydroxyphenyl)-4-(2,2,3,3,3-pentafluoropropoxy)spiro[1,2-dioxetane-3,2'-tricyclo[3.3.1.1^3,7]decane]], in data set [1], the “t1/2 37° C. (half-life of decay of chemiluminescence)” value came out at 3.4 min.

With `Oc1cccc(C2(OC(C(F)(F)F)C(F)(F)F)OOC23C2CC4CC(C2)CC3C4)c1` (centres unmarked) [Dioxetane 14, 4-(Hexafluoroisopropoxy)-4-(3-hydroxyphenyl)spiro[1,2-dioxetane-3,2'-tricyclo-[3.3.1.1^3,7]decane]], the “t1/2 37° C. (half-life of decay of chemiluminescence)” value in data set [1] is on record as 0.16 min.

Turning to `CC(C)(C)C(=O)Oc1cccc(C2(Sc3ccc(F)cc3)OOC23C2CC4CC(C2)CC3C4)c1` (centres unmarked) [Dioxetane 4, 4-(p-Fluorophenylthio)-4-(3-pivaloyloxyphenyl)spiro[1,2-dioxetane-3,2'tricyclo-[3.3.1.1^3,7]decane]], the chemiluminescence colour result in data set [2] (0.1 M TBAF in DMSO) is “yellow emission”; in data set [2] (excess TBAF in DMSO), “red chemiluminescence”.

As to `COC1(c2cccc(OC(=O)C(C)(C)C)c2)OOC12C1CC3CC(C1)CC2C3` (centres unmarked) [Dioxetane 20, 4-Methoxy-4-(3-pivaloyloxyphenyl)spiro[1,2-dioxetane-3,2'-tricyclo-[3.3.1.1^3,7]decane]], the chemiluminescence colour result in data set [2] (0.1 M TBAF in DMSO) is recorded as “blue emission”.

On to `Oc1cccc(C2(Sc3ccc(F)cc3)OOC23C2CC4CC(C2)CC3C4)c1` (centres unmarked) [Dioxetane 3, 4-(p-Fluorophenylthio)-4-(3-hydroxyphenyl)spiro[1,2-dioxetane-3,2'-tricyclo-[3.3.1.1^3,7]decane]], for which the “t1/2 (decay of chemiluminescence)” value in data set [3] (Surfactant A (CTAB) 0.41 g/L) was found to be 11.2 min; in data set [3] (Surfactant B (poly(vinylbenzyltributylphosphonium chloride)) 0.5 g/L) it was 4.2 min; in data set [3] (Surfactant C (poly(vinylbenzyltributylphosphonium chloride)-co-poly(vinylbenzyltrioctylphosphonium chloride)) 0.5 g/L), 2.9 min; in data set [3] (Surfactant D (1-trioctylphoniummethyl-4-tributylphosphonium-methylbenzene dichloride) 1.0 g/L), 2.0 min. In addition, in data set [3] (alkaline amine buffer containing metal salts), the “kinetics for light emission compared with dioxetane 6 or alkoxy-substituted analogues” value is on record as “comparable to dioxetane 6”.

Consider `Oc1cccc(C2(SCC(F)(F)F)OOC23C2CC4CC(C2)CC3C4)c1` (centres unmarked) [Dioxetane 5, 4-(2,2,2-trifluoroethylthio)-4-(3-hydroxyphenyl)spiro[1,2-dioxetane-3,2'-tricyclo[3.3.1.1^3,7]decane]], for which the chemiluminescence colour entry in data set [2] (excess TBAF in DMSO) is listed as “orange-yellow light”.

Regarding `COC1(c2cccc(O[Si](c3ccccc3)(c3ccccc3)C(C)(C)C)c2)OOC12C1CC3CC(C1)CC2C3` (centres unmarked) [Dioxetane 22], the chemiluminescence colour result in data set [2] (0.1 M TBAF in DMSO) is on record as “blue chemiluminescence”. Further, the chemiluminescence on heating result in data set [4] is listed as “blue chemiluminescence”.

Turning to `COC1(c2cccc(O[Si](C)(C)C(C)(C)C)c2)OOC12C1CC3CC(C1)CC2C3` (centres unmarked) [Dioxetane 21], the chemiluminescence colour result in data set [2] (0.1 M TBAF in DMSO) is reported as “blue chemiluminescence”. The chemiluminescence on heating entry in data set [4] is on record as “blue chemiluminescence”.

Regarding `CCSC1(c2cccc(OC(=O)C(C)(C)C)c2)OOC12C1CC3CC(C1)CC2C3` (centres unmarked) [Dioxetane 2, 4-Ethylthio-4-(3-pivaloyloxyphenyl)spiro[1,2-dioxetane-3,2'-tricyclo-[3.3.1.1^3,7]decane]], the stability on silica result in data set [5] is “less stable on silica”. Further, in data set [2] (excess TBAF in DMSO), the chemiluminescence colour entry is reported as “yellow chemiluminescence”.

In the case of `CCSC1(c2cccc(O)c2)OOC12C1CC3CC(C1)CC2C3` (centres unmarked) [Dioxetane 1, 4-Ethylthio-4-(3-hydroxyphenyl)spiro[1,2-dioxetane-3,2'-tricyclo[3.3.1.1^3,7]decane]], the chemiluminescence colour entry is listed as “yellow emission” in data set [2] (0.1 M TBAF in DMSO) and “yellow chemiluminescence” in data set [2] (excess TBAF in DMSO).

With `C=CCOC1(c2cccc(O)c2)OOC12C1CC3CC(C1)CC2C3` (centres unmarked) [Dioxetane 8, 4-(3-Hydroxyphenyl)-4-(2-propenyloxy) spiro[1,2-dioxetane-3,2'-tricyclo[3.3.1.1^3,7]decane]], the chemiluminescence colour entry in data set [2] (0.1 M TBAF in DMSO) is recorded as “blue emission”.

For `Oc1cccc(C2(OCC(F)(F)C(F)(F)C(F)(F)F)OOC23C2CC4CC(C2)CC3C4)c1` (centres unmarked) [Dioxetane 18, 4-(2,2,3,3,4,4,4-Heptafluorobutoxy)-4-(3-hydroxyphenyl)spiro[1,2-dioxetane-3,2'-tricyclo[3.3.1.1^3,7]decane]], in data set [1], the “t1/2 37° C. (half-life of decay of chemiluminescence)” value was found to be 4.9 min.

For `N#CCCOC1(c2cccc(O)c2)OOC12C1CC3CC(C1)CC2C3` (centres unmarked) [Dioxetane 9, 4-(2-Cyanoethoxy)-4-(3-hydroxyphenyl)spiro[1,2-dioxetane-3,2'-tricyclo-[3.3.1.1^3,7]decane]], the chemiluminescence colour result in data set [2] (0.1 M TBAF in DMSO) is on record as “blue emission”.

Regarding `Oc1cccc(C2(Oc3ccccc3)OOC23C2CC4CC(C2)CC3C4)c1` (centres unmarked) [Dioxetane 11, 4-(3-Hydroxyphenyl)-4-phenoxyspiro[1,2-dioxetane-3,2'-tricyclo[3.3.1.1^3,7]decane]], in data set [2] (0.1 M TBAF in DMSO), the chemiluminescence colour result is “blue emission”.

On to `Oc1cccc(C2(OCC(Cl)Cl)OOC23C2CC4CC(C2)CC3C4)c1` (centres unmarked) [Dioxetane 16, 4-(2,2-Dichloroethoxy)-4-(3-hydroxyphenyl)spiro[1,2-dioxetane-3,2'-tricyclo-[3.3.1.1^3,7]decane]], for which the “t1/2 37° C. (half-life of decay of chemiluminescence)” value in data set [1] is recorded as 4.1 min.

In the case of `Oc1cccc(C2(OCC(Cl)(Cl)Cl)OOC23C2CC4CC(C2)CC3C4)c1` (centres unmarked) [Dioxetane 15, 4-(3-Hydroxyphenyl)-4-(2 2,2-trichloroethoxy)spiro[1,2-dioxetane-3,2'-tricyclo-[3.3.1.1^3,7]decane]], the “t1/2 37° C. (half-life of decay of chemiluminescence)” value in data set [1] is reported as 3.7 min.

On to `COC1(c2cccc(O)c2)OOC12C1CC3CC(C1)CC2C3` (centres unmarked) [Dioxetane 6, 4-(3-Hydroxyphenyl)-4-methoxyspiro[1,2-dioxetane-3,2'-tricyclo[3.3.1.1^3,7]decane]], for which the chemiluminescence colour result in data set [2] (0.1 M TBAF in DMSO) was “blue emission”.

Regarding `CC(C)OC1(c2cccc(O)c2)OOC12C1CC3CC(C1)CC2C3` (centres unmarked) [Dioxetane 7, 4-Isopropoxy-4-(3-hydroxyphenyl)spiro[1,2-dioxetane-3,2'-tricyclo[3.3.1.1^3,7]decane]], the chemiluminescence colour result in data set [2] (0.1 M TBAF in DMSO) was “blue emission”.

As for `OCCOC1(c2cccc(O)c2)OOC12C1CC3CC(C1)CC2C3` (centres unmarked) [Dioxetane 10, 4-(2-Hydroxyethoxy)-4-(3-hydroxyphenyl)spiro[1,2-dioxetane-3,2'-tricyclo-[3.3.1.1^3,7]decane]], in data set [2] (0.1 M TBAF in DMSO), the chemiluminescence colour entry is on record as “blue emission”.

`Oc1cccc(C2(Oc3c(F)cccc3F)OOC23C2CC4CC(C2)CC3C4)c1` (centres unmarked) [Dioxetane 19, 4-(2',6'-Difluorophenoxy)-4-(3-hydroxyphenyl)spiro[1,2-dioxetane-3,2'-tricyclo[3.3.1.1^3,7]decane]]: the “t1/2 37° C. (half-life of decay of chemiluminescence)” value in data set [1] is reported as 1.76 min.
